Source: PMC8607110, “Pyrazole Derivatives Induce Apoptosis via ROS Generation in the Triple Negative Breast Cancer Cells, MDA-MB-468” (Asian Pacific Journal of Cancer Prevention : APJCP, 2021)
Values joined by “and” are separate entries in the source; they are usually repeats but may differ in a detail not shown here. Equal values may be shown once. Read-outs that look alike come from different tables or passages of the source.

Experiments:
5637 cells = system: 5637 cells; set-up: method as in Tessmann et al., 2017; details: human bladder cancer cell line; ref Tessmann et al., 2017; cited from earlier work
AGO1522 cells = test: MTT cell viability assay, AGO1522 normal fibroblasts; format: cell-based; details: Homo sapiens, Fibroblast, mean ± SD of triplicate
Protocol: (§1) The MDA-MB-468 cells were maintained in DMEM/Ham’s F12 supplemented with L-glutamine, with 10% fetal bovine serum and 1% penicillin/streptomycin. The AGO1522 cell line was cultured in DMEM/Low Glucose, with 10% fetal bovine serum and 1% penicillin/ streptomycin. Cells were incubated at 37°C, 5% CO2 and every 2-3 days at the confluency of 80%, the cells were harvested from the culture flask by Trypsin-EDTA.
(§2) Cell viability was measured with the MTT assay. The reduction of the tetrazolium salt, to a blue formazan crystal is facilitated by mitochondrial dehydrogenase and NADPH-dependent cellular oxidoreductase enzymes (Abel and Baird, 2018). In the assay, an aliquot of 7.5 × 10^3 cells was seeded on the 96-well plates and allowed to attach overnight. Then, 11 Pyrazole derivatives (as shown in Table 1 and Figure S1) were added to the desired well with the final concentration of 3, 6.25, 12.5, 25, 50, 100 μM. After pre-treating cells for 24 and 48h, MTT (5 mg/ml in PBS) was added to each well and the cells were incubated for another 4 h at 37°C. In order to dissolve blue-colored formazan crystals, the entire medium was aspirated after the incubation period, and DMSO was added to the wells. An ELISA plate reader (BioTek Instruments, Inc., USA) was used to quantify the formazan concentration (with the wavelengths of 570 nm). All of the experiments were carried out on three replicates to ensure the measurement repeatability and the IC50 values were also calculated using GraphPad Prism software.

MDA-MB-468 cells [1] = test: MTT cell viability assay, MDA-MB-468; format: cell-based, human; details: mean ± SD of triplicate
Protocol: as §1, §2

MDA-MB-468 cells [2] = test: Cell cycle analysis by PI staining and flow cytometry; format: cell-based, human; details: 14.97 μM, 24 h
Protocol: Cell cycle analysis was conducted through taking advantage of PI staining and flow cytometry analysis. To evaluate cellular DNA levels, the cells stained with PI were subjected to ﬂow cytometric analyses. In this assay, six-well plates were loaded with 2 × 10^5 MDA-MB-468 cells / well. After incubation of the samples at 37°C for 24 h, cells were treated with 3f at concentrations of 14.7 μM followed 24 h incubation. Then, the effect of the drug became evident and cells collected by rinsing with PBS (two times), immobilizing with 70% ice-cold ethanol (for 3 h), and washing with PBS (two times). To resuspend the cells a mixture of 0.25 ml PBS containing 5 μl of 10 mg/ml RNase A and Triton X-100 (0.1%) including 10μl of PI (50 μg/ml) was used and incubation was performed at 37°C for 30 min in a dark place. The assessment of stain cells was carried out employing a FACS Calibur flow cytometer (BD Biosciences, San Jose, CA). The apoptotic rate of the cell population was measured by calculating the percentage of cells with sub-G1 DNA content.

MDA-MB-468 cells [3] = test: Intracellular ROS detection with DCFH-DA; format: cell-based, human; details: 14.97 μM, 24 h, MDA-MB-468, DCFH-DA fluorimetry, vs untreated
Protocol: The level of intracellular ROS corresponded to the MDA-MB-468 cells in response to the 3f compound was monitored by using DCFH-DA. Briefly, 7.5 × 10^3 MDA-MB-468 cells were seeded per well of 96-wells plate and allowed to attach to the bottom of the wells for an overnight followed by treatment with 3f compound at a concentration of 14.7 μM. After incubation of cells for 24 h, PBS was used for rinsing and then cells incubated in the presence of DCFH-DA for 30 min at 37°C. Next, to remove the extracellular DCFH-DA, cells were washed three times with prechilled PBS. Finally, the fluorescent of collected cells was analyzed by using a fluorescent microplate reader (BioTek Synergy HT, Winooski, VT, USA).

MDA-MB-468 cells [4] = test: Annexin V-FITC/PI apoptosis detection by flow cytometry; format: cell-based, human; details: 14.97 µM, 24 h, MDA-MB-468, compared with untreated cells
Protocol: Annexin V-FITC/PI Apoptosis Detection Kit was employed to detect apoptosis. To assess the number of apoptotic cells, an aliquot of MDA-MB-468 cells was adjusted to obtain 2 × 10^5 cells per well in six-well plates followed by incubation for an overnight. After incubation cells on the surface for an appropriate time, compound 3f was added to the wells to obtain the final concentration of 14.7μM in wells for 24 h. Cells were then harvested from the culture wells by aspirating media and washing with ice-cold PBS. Once the cells have detached, resuspended cells were pipetted up and down thoroughly followed by transferring to a sterilized 5 ml centrifuge tube. After 15min, 400 µl of the binding buffer was added to the cell suspension. Then annexin V-FITC and PI staining solution were added to the tubes. The cell suspension was then placed in a dark place (10 min at room temperature). A flow cytometer (BD Biosciences, San Jose, CA) was used to analyze the cells. The analysis of data was made using FlowJo software.

[5] = system: caspase-3 in MDA-MB-468 cells; test: Caspase-3 activity, DEVD-AFC fluorometric assay; format: cell-based, human; details: 14.97 μM, 24 h, MDA-MB-468, vs untreated
Protocol: From a mechanistic point of view, caspase 3 as a member of the cysteine-aspartic protease family is essential for a variety of biological activities, including apoptosis in mammalian cells (Skiba et al., 2019). To confirm the drug triggers apoptosis, the level of 7-amino-4-trifluoromethyl-coumarin (AFC) from DEVD-AFC, a marker of caspase 3 activation, was measured using Caspase-3/CPP32 Fluorometric Assay Kit (BioVision Research Products, Mountain View, CA, USA). Briefly, MDA-MB-468 cells (a density of 7.5 × 10^3 per well in 96-wells plate) were treated with 14.97 μM 3f for 24 h. The following day, cells were collected, washed two times in PBS and lysed in lysis buffer (for 10 min on ice). The concentration of protein was assessed and 50 µL of supernatant containing 50-200 µg protein was added to the 50 µL of 2x reaction buffer and 5 μl of DEVD-AFC substrate (1 mM), in a 96-wells plate. The mixture was then left at 37°C for 2 hours followed by monitoring the fluorescence intensity using a fluorescent microplate reader (BioTek Synergy HT, Winooski, VT, USA).

[6] = 24 h treatment, read-out: IC50, AGO1522, 24 hours
[7] = 48 h treatment, read-out: IC50, AGO1522, 48 hours
[8] = Homo sapiens, MDA-MB-468, 24 h, 24 h treatment, read-out: IC50, MDA-MB-468, 24 hours
[9] = Homo sapiens, MDA-MB-468, 48 h, 48 h treatment, read-out: IC50, MDA-MB-468, 48 hours

SMILES	IC50 (AGO1522 cells; [6])	IC50 (AGO1522 cells; [7])	IC50 (MDA-MB-468 cells [1]; [8])	IC50 (MDA-MB-468 cells [1]; [9])	further results
NC(=S)N1N=C(c2ccccc2)CC1c1ccccc1 (stereo not shown) [2a, 1-thiocarbamoyl-3,5-diphenyl-4,5-dihydro-1H-Pyrazole]	–	–	–	–	cell cycle progression of 5637 cells (5637 cells): inhibited cell cycle progression
NC(=S)N1N=C(c2ccccc2)CC1c1ccc(Cl)cc1 (stereo not shown) [2c, 1-thiocarbamoyl-5-(4-chlorophenyl)-3-phenyl-4,5-dihydro-1H-Pyrazole]	–	–	–	–	cell cycle progression of 5637 cells (5637 cells): inhibited cell cycle progression
COc1cc(C2CC(c3ccccc3)=NN2c2ccccc2)cc(OC)c1OC (stereo not shown) [3a, 1,3-diphenyl-5-(3,4,5-trimethoxyphenyl)-4,5-dihydro-1H-Pyrazole]	28.8 ± 0.95 µM	19.9 ± 0.83 µM	25 µM	6.41 ± 1.1 µM	–
COc1cc(C2CC(c3ccccc3)=NN2c2ccc(C)cc2)cc(OC)c1OC (stereo not shown) [3b, 3-phenyl-1-(p-tolyl)-5-(3,4,5-trimethoxyphenyl)-4,5-dihydro-1H-Pyrazole]	29.8 ± 1.02 µM	19.8 ± 0.96 µM	19.2 ± 0.97 µM	9.29 ± 0.67 µM	–
COc1cc(C2CC(c3ccccc3)=NN2c2ccc(Cl)cc2)cc(OC)c1OC (stereo not shown) [3c, 1-(4-chlorophenyl)-3-phenyl-5-(3,4,5-trimethoxyphenyl)-4,5-dihydro-1H-Pyrazole]	24.1 ± 0.65 µM	17.7 ± 0.93 µM	58.6 ± 0.82 µM	19.9 ± 1.12 µM	–
COc1cc(C2CC(c3ccccc3)=NN2c2ccc(F)cc2)cc(OC)c1OC (stereo not shown) [3d, 1-(4-fluorophenyl)-3-phenyl-5-(3,4,5-trimethoxyphenyl)-4,5-dihydro-1H-Pyrazole]	42.1 ± 1.27 µM	35.6 ± 1.32 µM	32.6 ± 1.22 µM	15.2 ± 0.9 µM	–
COc1ccc(C2=NN(c3ccccc3)C(c3cc(OC)c(OC)c(OC)c3)C2)cc1 (stereo not shown) [3e, 3-(4-methoxyphenyl)-1-phenyl-5-(3,4,5-trimethoxyphenyl)-4,5-dihydro-1H-Pyrazole]	42.8 ± 0.98 µM	19.9 ± 0.99 µM	21.3 ± 0.85 µM	10.8 ± 0.93 µM	–
COc1ccc(C2=NN(c3ccc(C)cc3)C(c3cc(OC)c(OC)c(OC)c3)C2)cc1 (stereo not shown) [3f, 3-(4-methoxyphenyl)-1-(p-tolyl)-5-(3,4,5-trimethoxyphenyl)-4,5-dihydro-1H-Pyrazole]	28.7 ± 1.2 µM	20.3 ± 0.83 µM	15 ± 1.09 µM	6.4 µM	G1 cell fraction (MDA-MB-468 cells [2]): 50.52%; G2 cell fraction (MDA-MB-468 cells [2]): 6.28%; S phase cell fraction (MDA-MB-468 cells [2]): 35% and 35.01%; Sub-G1 cell fraction (MDA-MB-468 cells [2]): 8.12%; Super-G2 cell fraction (MDA-MB-468 cells [2]): 0.07%; cell cycle effect (MDA-MB-468 cells [2]): induced cell cycle arrest in S phase; Sub-G1 cell fraction (MDA-MB-468 cells [2]; as worded in text): 8.12%; intracellular ROS level (MDA-MB-468 cells [3]): ascending trend; apoptosis value (MDA-MB-468 cells [4]): 38%; IC50 (MDA-MB-468 cells [1]; 48 h treatment, read-out: IC50, MDA-MB-468, 48 hours): 6.45 ± 0.84 µM; caspase-3 activity [5]: significantly increased
COc1ccc(C2=NN(c3ccc(Cl)cc3)C(c3cc(OC)c(OC)c(OC)c3)C2)cc1 (stereo not shown) [3g, 1-(4-chlorophenyl)-3-(4-methoxyphenyl)-5-(3,4,5-trimethoxyphenyl)-4,5-dihydro-1HPyrazole]	43.3 ± 0.96 µM	34 ± 1.92 µM	25.8 ± 0.91 µM	8.5 ± 0.89 µM	–
COc1cc(-c2cc(-c3ccccc3)nn2-c2ccccc2)cc(OC)c1OC [4a, 1,3-diphenyl-5-(3,4,5-trimethoxyphenyl)-1H-Pyrazole]	31.2 ± 1.24 µM	14.5 ± 0.97 µM	19.4 ± 1.14 µM	11 ± 0.88 µM	–
COc1ccc(-c2cc(-c3cc(OC)c(OC)c(OC)c3)n(-c3ccc(C)cc3)n2)cc1 [4b, 3-(4-methoxyphenyl)-1-(p-tolyl)-5-(3,4,5-trimethoxyphenyl)-1H-Pyrazole]	34.6 ± 0.89 µM	27 ± 0.79 µM	58.2 ± 1.35 µM	12 ± 0.94 µM	–
COc1ccc(-c2cc(-c3cc(OC)c(OC)c(OC)c3)n(-c3ccc(Cl)cc3)n2)cc1 [4c, 1-(4-chlorophenyl)-3-(4-methoxyphenyl)-5-(3,4,5-trimethoxyphenyl)-1H-Pyrazole]	25.2 ± 0.88 µM	20.9 ± 0.92 µM	28.8 ± 0.98 µM	12.4 ± 0.79 µM	–
COc1ccc(-c2cc(-c3cc(OC)c(OC)c(OC)c3)n(-c3ccc(F)cc3)n2)cc1 [4d, 1-(4-fluorophenyl)-3-(4-methoxyphenyl)-5-(3,4,5-trimethoxyphenyl)-1H-Pyrazole]	34.4 ± 1.31 µM	27.3 ± 0.94 µM	58.6 ± 1.32 µM	24.5 ± 1.17 µM	–
CC(=O)O[C@H]1C(=O)[C@@]2(C)[C@H]([C@H](OC(=O)c3ccccc3)[C@]3(O)C[C@H](OC(=O)[C@H](O)[C@@H](NC(=O)c4ccccc4)c4ccccc4)C(C)=C1C3(C)C)[C@]1(OC(C)=O)CO[C@@H]1C[C@@H]2O [Paclitaxel, reference compound]	42.9 ± 1.42 µM	22.6 ± 0.91 µM	49.9 ± 0.97 µM	25.2 ± 1.27 µM	–
